In one data set the test system is C. parapsilosis. Briefly: MIC determination against C. parapsilosis. Type of data set: cell-based, Candida parapsilosis. The note with it: Lodderomyces parapsilosis; RPMI-1640, 35° C. or 37° C., turbidity after 24 and 48 hours. In short, it runs like this:
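Broth microdilution in RPMI-1640 with C. parapsilosis at 0.5×10^3 to 2.5×10^3 CFU/mL; test compounds 0.25-128 μg/ml final, 1% DMSO. Plates incubated at 35° C or 37° C, turbidity read visually at 24 and 48 h. MIC = lowest concentration without visible growth; triplicates.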

The next data set concerns HEK-293T cells. The data set is described as follows: Cytotoxicity in HEK-293T cells (Cell Titer Glo). Type of data set: cell-based, human. Conditions: for IC50: Homo sapiens.
The subject of data set [1] is S. cerevisiae wild-type (NP40-36a) and mtDNA intronless (XPM46) strains. The data set is described as follows: S. cerevisiae growth assay, wild-type vs mtDNA intronless strain. Conditions: YPGE medium, 64 or 128 μg/mL. Type of data set: cell-based, Saccharomyces cerevisiae. On the procedure:
Cultures of S. cerevisiae (Wild-type: NP40-36a, mtDNA intronless: XPM46 (Perez-Martinez et al., 2003, EMBO J, 22:5951-5961) were grown overnight with shaking to mid-log phase in YPGE at 30° C. Equal numbers of cells were harvested and serially-diluted 1:5. Cells were then plated on YPD or YPGE media containing DMSO or Intronistat A dissolved in DMSO (final concentration: 64 or 128 μg/mL). Plates were grown for one day (YPD plates), two days (YPGE DMSO plate), or 18 days (YPGE 18 (Intronistat A) plate) at 30° C. Experiment was replicated twice to ensure reproducibility of growth phenotype.

The test system of data set [2] is COX1 aI5γ group II intron. Briefly: Group II intron splicing in S. cerevisiae by RT-qPCR. Type of data set: cell-based, Saccharomyces cerevisiae. Conditions: qRT-PCR, four hours with compound. On the procedure:
A culture of S. cerevisiae was grown overnight with shaking in YPGE at 30° C. The saturated culture was then diluted and grown to mid-log phase in YPGE. Equal volumes of DMSO or compounds dissolved in DMSO were added to individual cultures (final concentrations of NED-2020: 64 μg/mL, APY-101: 32 μg/mL, APY-081: 32 μg/mL, APY-014: 64 μg/mL, Amphotericin B: 8 μg/mL), and incubated for four hours. Cells were harvested by centrifugation, washed with 500 μL ice-cold MilliQ water, centrifuged again, and snap-frozen in liquid nitrogen. Total RNA was isolated using E.Z.N.A. Yeast Purification Kit (Omega Bio-tek) according to manufacturer's procedures. The RNA was eluted in 50 μL of RNase/DNase-free water (ThermoFisher), followed by DNAse treatment with RQ1 DNase (Promega), for 1 hour at 37° C. Then it was mixed with 6 μl of 3M NaOAc and precipitated with 75% EtOH at −20° C. overnight. Then the RNA was reverse-transcribed with SuperScript III (ThermoFisher) following manufacturer's recommendations with 200 ng Random Hexamer Primers (ThermoFisher) and RNasin (ThermoFisher) in a 20 μl reaction. After reverse transcription, RNA was degraded by addition of 2N NaOH (2 μl) and incubation at 95° C. for 5 minutes. After cooling on ice for 5 minutes, 2 μl of 1M HCl and 2 μl of 3M NaOAc were added to the reaction mixture, and cDNA was precipitated with 75% EtOH at −20° C. for 30 minutes and resuspended in RNase/DNase-free water. The cDNA levels were quantified with real-time PCR using LightCycler 480 SYBR Green I (Roche) and a CFX384 Real-Time PCR Detection System (Bio-Rad) in triplicate. Relative levels of indicated RNA species from different conditions were normalized according to the ΔΔCT method via the following equation (Livak and Schmittgen, 2001, Methods, 25:402-408): ΔΔCT=[(CTCOX1total or unspliced−CTACT1or PGK1)test compound−(CTCOX1total or unspliced−CTACT1or PGK1)DMSO)].
The average and SEM of 2^-ΔΔCT is reported for each sample from three independent replicates. The following primer sets were used to amplify indicated targets: ACT1: […] (SEQ ID NO:1), […] (SEQ ID NO:2); PGK1: […] […]

[3] abbreviates: 72 hours growth in the presence of compounds, read-out: IC50 HEK-293T viability after 72-hour incubation.
Where [4] appears, read: cytotoxicity, 24 hours with compound, read-out: IC50 HEK-293.

≈ marks a conversion by molar mass, not a printed value. Where two headings read alike, the source gives them in different places. Some results are limits rather than exact numbers.

Turning to `CC(=O)c1ccc(-c2ccc3oc(C(=O)c4cc(O)c(O)c(O)c4)cc3c2)cc1` [APY-101, 1-(4-{2-[(3,4,5-Trihydroxyphenyl)carbonyl]-1-benzofuran-5-yl}phenyl)ethan-1-one], in the data set on C. parapsilosis, the MIC lay within 2 to 4 µg/mL (≈ 5.15 to 10.3 µM). For the same compound, the “Toxicity in human cells (in words)” value in the data set with HEK-293T cells (24 hours incubation) is recorded as “did not show toxicity”. Besides, the half-maximal inhibitory concentration (IC50) with HEK-293T cells (setting [3]) was 1.3 ± 0.1 µg/mL; in the data set with HEK-293T cells (setting [4]) it was over 128 µg/mL. In data set [1], the “Growth of intronless vs wild-type strain in presence of compound (in words)” value is on record as “intronless strain is much more resistant”. Further, in data set [2], the “Splicing of COX1 aI5γ group II intron in S. cerevisiae in vivo (in words)” value (from here on “Splicing of COX1 aI5γ group II intron”) was “inhibit splicing”.

The compound `CCCCNS(=O)(=O)c1ccc(-c2ccc(-c3nc(-c4cc(O)c(O)c(O)c4)cs3)cc2)cc1` [APY-093, N-Butyl-4-{4-[4-(3,4,5-trihydroxyphenyl)-1,3-thiazol-2-yl]phenyl}benzene-1-sulfonamide] registered an MIC against C. parapsilosis of 32 to 64 µg/mL (≈ 64.4 to 129 µM). For the same compound, the IC50 with HEK-293T cells (setting [4]) worked out at 7.2 ± 1.5 µg/mL.

As for `O=C1/C(=C/c2cc(O)cc(O)c2)Oc2cc(O)cc(O)c21` [APY-014, (Z)-2-(3,5-Dihydroxybenzylidene)-4,6-dihydroxybenzofuran-3(2H)-one], the IC50 in the data set with HEK-293T cells (setting [4]) is over 64 µg/mL. The “Splicing of COX1 aI5γ group II intron” value in data set [2] is “inactive”.

`Br.CCN(CC)Cc1ccc(-c2ccc3oc(C(=O)c4cc(O)c(O)c(O)c4)cc3c2)cc1` [APY-090, 5-[(5-{4-[(Diethylamino)methyl]phenyl}-1-benzofuran-2-yl)carbonyl]benzene-1,2,3-triol hydrobromide] yielded a minimal inhibitory concentration (MIC) against C. parapsilosis of 4 to 8 µg/mL. Moreover, the IC50 in the data set on HEK-293T cells (setting [4]) was 1.7 ± 0.6 µg/mL.

`Cc1ccncc1-c1ccc2oc(C(=O)c3cc(O)c(O)c(O)c3)cc2c1` [APY-081, 5-{[5-(4-Methylpyridin-3-yl)-1-benzofuran-2-yl]carbonyl}benzene-1,2,3-triol]: the minimum inhibitory concentration (MIC) against C. parapsilosis was in the range of 4 to 8 µg/mL (≈ 11.1 to 22.1 µM). Besides, the half-inhibitory concentration (IC50) with HEK-293T cells (setting [3]) was 0.79 ± 0.09 µg/mL; in the data set on HEK-293T cells (setting [4]), over 128 µg/mL. For the same compound, the “Splicing of COX1 aI5γ group II intron” value in data set [2] is reported as “inhibit splicing”.

In the data set with C. parapsilosis, `O=C(c1cc(O)c(O)c(O)c1)c1cc2cc(-c3ccc(CO)cc3)ccc2o1` [APY-084, 5-({5-[4-(Hydroxymethyl)phenyl]-1-benzofuran-2-yl}carbonyl)benzene-1,2,3-triol] showed a minimum inhibitory concentration (MIC) of 2 to 4 µg/mL (≈ 5.31 to 10.6 µM). Besides, the IC50 in the data set with HEK-293T cells (setting [3]) stood at 1 ± 0.04 µg/mL; with HEK-293T cells (setting [4]), 1.1 ± 0.1 µg/mL.

Source of the values: patent US12421257B2, “Compositions and methods for inhibiting group II intron RNA” (YALE UNIVERSITY, priority 2018, dated 2025).
